Read-outs that look alike come from different tables or passages of the source.
Columns and labels:
full-length human PHD1 = full-length human PHD1 (Homo sapiens (Human), UniProt Q96KS0); assay: TR-FRET assay for PHD enzymes, PHD1; type: biochemical; conditions: TR-FRET, 15 nM PHD1, 1 μM 2-OG
Excerpt: PHD1 was expressed in a baculovirus expression system as the full-length protein (NCBI accession number NP_542770.2) with an N-terminal FLAG tag (molecular weight 44.9 kDa).

full-length human PHD3 = full-length human PHD3 (Homo sapiens (Human), UniProt Q9H6Z9); assay: TR-FRET assay for PHD enzymes, PHD3; type: biochemical
Excerpt: Recombinant human PHD3 protein (molecular weight 31.1 kDa) was purchased from Active Motif (Carlsbad, CA, USA). It was expressed in E. coli as the full-length protein (NCBI accession number NP_071356.1) with an N-terminal 6-His tag (catalog #81033, Lot #24417001).

full-length human PHD2 = full-length human PHD2 (Homo sapiens (Human), UniProt Q9GZT9); assay: TR-FRET assay for PHD enzymes, PHD2; conditions: read-out: PHD2 IC50; TR-FRET, 5 nM PHD2, 1 μM 2-OG
full-length human PHD2, sequence (Q9GZT9 whole entry): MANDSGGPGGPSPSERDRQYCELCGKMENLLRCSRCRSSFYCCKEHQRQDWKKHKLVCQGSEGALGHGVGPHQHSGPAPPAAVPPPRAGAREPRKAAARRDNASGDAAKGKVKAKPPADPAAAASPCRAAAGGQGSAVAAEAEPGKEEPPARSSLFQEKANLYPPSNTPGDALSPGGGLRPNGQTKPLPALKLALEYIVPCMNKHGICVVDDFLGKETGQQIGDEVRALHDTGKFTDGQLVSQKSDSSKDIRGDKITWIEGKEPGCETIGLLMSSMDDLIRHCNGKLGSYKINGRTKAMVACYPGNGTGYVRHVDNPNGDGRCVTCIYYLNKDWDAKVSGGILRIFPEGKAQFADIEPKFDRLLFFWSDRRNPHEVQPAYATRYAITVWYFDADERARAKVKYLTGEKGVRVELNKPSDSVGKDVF
Excerpt: Time-resolved fluorescence resonance energy transfer (TR-FRET) assay was utilized to determine the enzymatic half maximal inhibitory concentration (IC50) value of PHD inhibitors against the full-length human prolyl-4-hydroxylase domain (PHD) enzymes, PHD1, PHD2, and PHD3. The TR-FRET assay was developed based on the specific binding of hydroxylated HIF-1α peptide with the complex formed by VHL, EloB and EloC (VBC), to generate a fluorescent signal. Terbium (Tb)-Donor (monoclonal antibody anti-6His-Tb-cryptate Gold) and D2-acceptor (streptavidin [SA]-D2) of TR-FRET are linked to the VBC complex and to HIF-1α peptide, respectively. The VBC complex binds specifically to the HIF-1α peptide when it is hydroxylated, allowing energy transfer from TR-FRET donor to acceptor (FIG. 1). […] The plates were incubated for 30 minutes at room temperature without rotation. […] TR-FRET assays were performed in triplicate at each concentration of compound and the assays were repeated independently three times.

full-length human PHD3, sequence (Q9H6Z9 whole entry): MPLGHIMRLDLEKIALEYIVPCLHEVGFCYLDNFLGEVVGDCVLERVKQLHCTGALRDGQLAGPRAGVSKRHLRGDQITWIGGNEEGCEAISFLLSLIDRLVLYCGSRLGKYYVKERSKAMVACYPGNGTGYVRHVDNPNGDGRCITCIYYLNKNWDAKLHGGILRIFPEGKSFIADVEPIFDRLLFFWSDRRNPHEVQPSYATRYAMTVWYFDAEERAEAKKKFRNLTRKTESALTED
full-length human PHD1, sequence (Q96KS0 whole entry): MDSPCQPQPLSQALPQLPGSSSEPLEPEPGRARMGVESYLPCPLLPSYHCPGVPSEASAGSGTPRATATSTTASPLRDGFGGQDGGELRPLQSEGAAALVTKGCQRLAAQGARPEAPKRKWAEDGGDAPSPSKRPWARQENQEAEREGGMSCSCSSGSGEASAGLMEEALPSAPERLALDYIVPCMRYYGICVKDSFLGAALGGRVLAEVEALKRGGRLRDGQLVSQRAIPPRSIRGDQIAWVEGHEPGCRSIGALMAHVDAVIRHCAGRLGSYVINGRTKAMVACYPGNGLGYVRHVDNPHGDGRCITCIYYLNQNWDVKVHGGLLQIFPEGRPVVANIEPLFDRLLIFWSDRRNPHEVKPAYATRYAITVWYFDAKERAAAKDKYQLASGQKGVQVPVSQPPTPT

SMILES | IC50 (full-length human PHD1) [µM] | IC50 (full-length human PHD3; TR-FRET, 35 nM PHD3, 1 μM 2-OG) [µM] | IC50 (full-length human PHD2) [µM] | IC50 (full-length human PHD3) [µM]
Cc1c(-c2cc(Cl)cc(Cl)c2)cnc(C(=O)NCC(=O)O)c1O [Compound 36, (5-(3,5-dichlorophenyl)-3-hydroxy-4-methylpicolinoyl)glycine] | < 0.1 | < 0.1 | < 0.1 | –
Cc1c(-c2cn(-c3ccc(F)cc3)nn2)cnc(C(=O)NCC(=O)O)c1O [Compound 41, (5-(1-(4-fluorophenyl)-1H-1,2,3-triazol-4-yl)-3-hydroxy-4-methylpicolinoyl)glycine] | < 0.1 | < 0.1 | < 0.1 | –
Cc1c(-c2cnc3ccccc3c2)cnc(C(=O)NCC(=O)O)c1O [Compound 28] | < 0.1 | < 0.1 | < 0.1 | –
Cc1c(-c2cn(CCCc3ccc(Cl)cc3)nn2)cnc(C(=O)NCC(=O)O)c1O [Compound 43, (5-(1-(3-(4-chlorophenyl)propyl)-1H-1,2,3-triazol-4-yl)-3-hydroxy-4-methylpicolinoyl)glycine] | < 0.1 | < 0.1 | < 0.1 | –
Cc1c(-c2ccc3cnccc3c2)cnc(C(=O)NCC(=O)O)c1O [Compound 3, (3-Hydroxy-5-(isoquinolin-6-yl)-4-methylpicolinoyl)glycine] | < 0.1 | < 0.1 | < 0.1 | –
Cc1ccc(-c2cnc(C(=O)NCC(=O)O)c(O)c2C)cn1 [Compound 27, (5-hydroxy-4,6′-dimethyl-[3,3′-bipyridine]-6-carbonyl)glycine] | < 0.1 | – | < 0.1 | 0.1 to 1
Cc1c(-c2cn(CCc3ccc(Cl)cc3)nn2)cnc(C(=O)NCC(=O)O)c1O [Compound 42, (5-(1-(4-chlorophenethyl)-1H-1,2,3-triazol-4-yl)-3-hydroxy-4-methylpicolinoyl)glycine] | < 0.1 | < 0.1 | < 0.1 | –
Cc1c(-c2cnc(-c3ccccc3)o2)cnc(C(=O)NCC(=O)O)c1O [Compound 26, (3-hydroxy-4-methyl-5-(2-phenyloxazol-5-yl)picolinoyl)glycine] | < 0.1 | < 0.1 | < 0.1 | –
Cc1nn(-c2ccc(F)cc2)cc1-c1cnc(C(=O)NCC(=O)O)c(O)c1C [Compound 38, (5-(1-(4-fluorophenyl)-3-methyl-1H-pyrazol-4-yl)-3-hydroxy-4-methylpicolinoyl)glycine] | < 0.1 | < 0.1 | < 0.1 | –
Cc1c(-c2cnc(-c3ccccc3)s2)cnc(C(=O)NCC(=O)O)c1O [Compound 7, (3-Hydroxy-4-methyl-5-(2-phenylthiazol-5-yl)picolinoyl)glycine] | < 0.1 | < 0.1 | < 0.1 | –
Cc1c(-c2cnn(C3CCOCC3)c2)cnc(C(=O)NCC(=O)O)c1O [Compound 21, (3-Hydroxy-4-methyl-5-(1-(tetrahydro-2H-pyran-4-yl)-1H-pyrazol-4-yl)picolinoyl)glycine] | < 0.1 | < 0.1 | < 0.1 | –
COc1cccc(-c2cnc(C(=O)NCC(=O)O)c(O)c2C)c1 [Compound 2, (3-Hydroxy-5-(3-methoxyphenyl)-4-methylpicolinoyl)glycine] | < 0.1 | < 0.1 | < 0.1 | –
Cc1ccc2cc(-c3cnc(C(=O)NCC(=O)O)c(O)c3C)ccc2n1 [Compound 5, (3-Hydroxy-4-methyl-5-(2-methylquinolin-6-yl)picolinoyl)glycine] | < 0.1 | < 0.1 | < 0.1 | –
Cc1nc(C(=O)NCC(=O)O)c(O)c(C)c1-c1cnn(-c2ccccc2)c1 [Compound 25, (3-Hydroxy-4,6-dimethyl-5-(1-phenyl-1H-pyrazol-4-yl)picolinoyl)glycine] | < 0.1 | < 0.1 | < 0.1 | –
Cc1c(-c2cnn(-c3ccccn3)c2)cnc(C(=O)NCC(=O)O)c1O [Compound 18, (3-Hydroxy-4-methyl-5-(1-(pyridin-2-yl)-1H-pyrazol-4-yl)picolinoyl)glycine] | < 0.1 | < 0.1 | < 0.1 | –
Cc1c(-c2cnn(C(C)C)c2)cnc(C(=O)NCC(=O)O)c1O [Compound 20, (3-Hydroxy-5-(1-isopropyl-1H-pyrazol-4-yl)-4-methylpicolinoyl)glycine] | < 0.1 | < 0.1 | < 0.1 | –
Cc1c(-c2cnn(-c3ccc(F)cc3)c2)cnc(C(=O)NCC(=O)O)c1O [Compound 19, (5-(1-(4-Fluorophenyl)-1H-pyrazol-4-yl)-3-hydroxy-4-methylpicolinoyl)glycine] | < 0.1 | < 0.1 | < 0.1 | –
Cc1c(-c2cccnc2)cnc(C(=O)NCC(=O)O)c1O [Compound 10, (5-Hydroxy-4-methyl-[3,3′-bipyridine]-6-carbonyl)glycine] | < 0.1 | < 0.1 | < 0.1 | –
Cc1c(-c2ccc3ccccc3c2)cnc(C(=O)NCC(=O)O)c1O [Compound 33, (3-hydroxy-4-methyl-5-(naphthalen-2-yl)picolinoyl)glycine] | < 0.1 | < 0.1 | < 0.1 | –
Cc1c(-c2cn(-c3ccccc3)nn2)cnc(C(=O)NCC(=O)O)c1O [Compound 44, (3-hydroxy-4-methyl-5-(1-phenyl-1H-1,2,3-triazol-4-yl)picolinoyl)glycine] | < 0.1 | < 0.1 | < 0.1 | –

From patent US20230295110A1, “PHD INHIBITOR COMPOUNDS, COMPOSITIONS, AND METHODS OF USE” (Akebia Therapeutics, Inc., priority 2020, published 2023)
